Peptide text beside a SMILES is read from it. * marks the point of attachment. Paclitaxel(2'-O-succinyl) = CC(=O)O[C@H]1C(=O)[C@@]2(C)[C@H]([C@H](OC(=O)c3ccccc3)[C@]3(O)C[C@H](OC(=O)[C@H](OC(=O)CCC(=O)*)[C@@H](NC(=O)c4ccccc4)c4ccccc4)C(C)=C1C3(C)C)[C@]1(OC(C)=O)CO[C@@H]1C[C@@H]2O
Legend:
A549 cells = experiment: Tumor vertical migration (Transwell chambers); format: cell-based; settings: 48 h
Description: A549 cells in the logarithmic growth phase were taken, digested with trypsin to prepare a cell suspension, and 100 µL of the cell suspension was inoculated into Transwell chambers with 3.5×10^4 cells per well. A blank group, a positive drug group, and an administration group were set up. […] 600 µL of F-12K medium containing 10% FBS was added to the 24-well plate holding the chambers. After incubation in a 37°C, 5% CO2 incubator for 48 h, the cells were fixed with methanol for 30 min and stained with crystal violet for 10 min. After staining, the cell migration status was photographed under a microscope (model: CKX31SF, manufacturer: OLYMPUS CORPORATION) at a magnification of 100×. Meanwhile, Photoshop 20.0.1 was used for quantitative calculation of the number of migrated tumor cells, and the results were expressed as mean ± SD (n = 3).

[1] = tested on: gastric cancer MKN45 xenograft tumors; experiment: In vivo tumor-inhibitory activity of DOC-AI, MKN45 xenograft; parameters: species or system BALB/c nude mice; Tumor Weight: unit not given here; settings: 6.20 µmol/Kg
Description: (§1) Non-small cell lung cancer A549 cells and human gastric cancer MKN-45 cells were preserved in F12-K medium containing 10% fetal bovine serum and 1% penicillin + streptomycin, and incubated at 37°C with 5% CO2 and 95% humidity. The aforementioned cells were cultured in T175 flasks with an experimental cell density of 80%. The aforementioned cell lines were mycoplasma-negative. Both A549 cells and MKN-45 cells were provided by Nanjing Anji Biotechnology Co., Ltd.
Gastric cancer MKN45 cells in the vigorous growth stage were taken and inoculated subcutaneously into the right axilla of BALB/c nude mice (Hangzhou Ziyuan Laboratory Animal Technology Co., Ltd.) under sterile conditions, with a cell inoculation amount of 1×10^7. The diameter of transplanted tumors in nude mice was measured with a vernier caliper. When the tumors grew to approximately 50 mm^3, 18 tumor-bearing nude mice with good growth status and relatively uniform tumor size were selected and divided into 3 groups, with 6 mice in each group. The administration frequency was once every 3 days, and this cycle was repeated until day 21. The anti-tumor effect in the nude mice was dynamically observed by measuring the tumor diameter. The tumor diameter was measured every other day, and the body weight of the nude mice was weighed simultaneously during the measurement of the tumor diameter. After 21 days of administration, the nude mice were euthanized, the tumor inhibition rate (%) was calculated, and the tumor masses were peeled off and weighed. Table 7 Results of Detection of In Vivo Tumor-Inhibitory Activity of DOC-AI

[2] = tested on: human gastric cancer cell MKN45 xenograft tumors; experiment: In vivo tumor-inhibitory activity of PTX-AI, MKN45 xenograft; parameters: species or system BALB/c nude mice; settings: 21 days; for Final Tumor Volume: in mm³ (unit assumed)
Description: as §1
Human gastric cancer cells MKN-45 in the vigorous growth stage were taken and inoculated subcutaneously into the right axilla of BALB/c nude mice under sterile conditions, with a cell inoculation amount of 5×10^6. The diameter of transplanted tumors in nude mice was measured with a vernier caliper. When the tumors grew to approximately 50mm^3, […] tumor-bearing nude mice with good growth status and relatively uniform tumor size were selected, and divided into 6 groups, including 10 mice in the model group and 8 mice in each of the remaining groups. The anti-tumor effect of the test substance was dynamically observed by measuring the tumor diameter. The tumor diameter was measured every other day, and the body weight of the nude mice was weighed simultaneously during the measurement of the tumor diameter. After 21 days of administration, the nude mice were euthanized, the tumor inhibition rate (%) was calculated, and the tumor masses were peeled off and weighed. Table 3 Detection of In Vivo Tumor-Inhibitory Activity of PTX-AI

[3] = MKN45 xenograft, once every 3 days until day 21
[4] = 2.64 µmol/Kg, once every other day
[5] = 4.07 µmol/Kg, once every other day
[6] = 5.28 µmol/Kg, continuous administration for 4 days a week
[7] = 7.92 µmol/Kg, once every other day

Row | Compound | vertical migration rate (A549 cells; 10 nM DOC-AI compared with 10 nM DOC) | vertical migration of A549 cells (A549 cells; 1 µM, 100 nM, 10 nM, 1 nM, compared with the blank group) | effective concentration (vertical migration) (A549 cells; A549, lowest effective concentration) [nM] | body weight changes ([1]; MKN45 xenograft nude mice, during the administration period) | Tumor Inhibition Rate [1, 3] [%] | Tumor Weight [1, 3] | Final Tumor Volume ([1]; MKN45 xenograft, once every 3 days until day 21, in mm³ (unit assumed)) | Tumor Inhibition Rate [2, 4] [%] | Tumor Weight [2, 4] [g] | Final Tumor Volume [2, 4] | Tumor Inhibition Rate [2, 5] [%] | Tumor Weight [2, 5] [g] | Final Tumor Volume [2, 5] | Tumor Inhibition Rate [2, 6] [%] | Tumor Weight [2, 6] [g] | Final Tumor Volume [2, 6] | Tumor Inhibition Rate [2, 7] [%] | Tumor Weight [2, 7] [g] | Final Tumor Volume [2, 7]
1 | CC(=O)O[C@@]12CO[C@@H]1C[C@H](O)[C@@]1(C)C(=O)[C@H](O)C3=C(C)[C@@H](OC(=O)[C@H](OC(=O)CCC(=O)N[C@@H](CCCNC(=N)N)C(=O)N[C@@H](CO)C(=O)N4CCC[C@H]4C(=O)N[C@@H](Cc4ccc(O)cc4)C(=O)N[C@@H](C)C(=O)N[C@@H](CC(N)=O)C(=O)N[C@@H](CO)C(=O)O)[C@@H](NC(=O)OC(C)(C)C)c4ccccc4)C[C@@](O)([C@@H](OC(=O)c4ccccc4)[C@H]21)C3(C)C [DOC-AI] | lower than that of 10 nM DOC | effectively inhibited the vertical migration of A549 cells in a concentration-dependent manner | 1 | no significant weight loss was observed | 84.25±9.15 | 204.34±54.48 | 191.31±54.48 | – | – | – | – | – | – | – | – | – | – | – | –
2 | CC(=O)O[C@H]1C(=O)[C@@]2(C)[C@H]([C@H](OC(=O)c3ccccc3)[C@]3(O)C[C@H](OC(=O)[C@H](OC(=O)CCC(=O)N[C@@H](CCCNC(=N)N)C(=O)N[C@@H](CO)C(=O)N4CCC[C@H]4C(=O)N[C@@H](Cc4ccc(O)cc4)C(=O)N[C@@H](C)C(=O)N[C@@H](CC(N)=O)C(=O)N[C@@H](CO)C(=O)O)[C@@H](NC(=O)c4ccccc4)c4ccccc4)C(C)=C1C3(C)C)[C@]1(OC(C)=O)CO[C@@H]1C[C@@H]2O [PTX-AI] ({Paclitaxel(2'-O-succinyl)}-RSPYANS-OH) | – | – | – | – | – | – | – | 36.3 | 0.961 ± 0.119 | 934.0±125.0 | 42.9 | 0.861 ± 0.126 | 852.1±137.3 | 53.3 | 0.705 ± 0.066 | 700.6±59.6 | 60.8 | 0.591 ± 0.099 | 579.8±91.9

From patent EP4725507A1, “POLYPEPTIDE CONJUGATE, PHARMACEUTICAL COMPOSITION CONTAINING POLYPEPTIDE CONJUGATE AND USE THEREOF” (Nanjing Anji Biotechnology Co., Ltd., priority 2023, dated 2025)
